Results published in patent US20240366539A1, “METHODS FOR TREATING AUTISM SPECTRUM DISORDERS” (INSTITUT NATIONAL DE LA SANTÉ ET DE LA RECHERCHE MÉDICALE, priority 2021, published 2024).

How the values were obtained:
Type in all cases: in vivo, mouse
Oprm1^−/− mice [1] = test: Direct social interaction test
Method: (§1) Mice were treated with vehicle (NaCl 0.9%; ip, 10 or 20 ml/kg), NaBr (Sigma-Aldrich, Saint-Quentin Fallavier, France) administered either chronically (once a day, 10, 30, 70, 125, 250 and 500 mg/kg; i.p. or per os, in a volume of 20 ml/kg—except for combination with VU0155041: […]) or acutely (250 mg/kg, 20 ml/kg), KBr (Sigma-Aldrich, Saint-Quentin Fallavier, France; 145 mg/kg; i.p., 20 ml/kg), bumetanide (R&D systems, Minneapolis, USA, 0.5 and 2 mg/kg; i.p., 20 ml/kg) or VU0155041 (Cayman Chemicals, Ann Arbor, USA, once a day, i.p., 1 mg/kg, 10 ml/kg). […] When treatment was given chronically, behavioral testing started 8 days after beginning of daily administration. Treatment was maintained for 8 to 18 consecutive days (see timelines in FIGS. 1 and 4), allowing thorough behavioral phenotyping. On testing days, or when treatment was given acutely, drugs (or vehicle) were administered 30 min before behavioral assays.
When assessing effects of chronic administration, experiments were performed successively (timelines in FIGS. 1 and 4) (51, 60). Testing order was chosen to minimize the incidence of anxiety on later assays. Direct social interaction and novelty suppressed feeding were performed in 4 equal square arenas (open fields, 50×50 cm) separated by 35 cm-high opaque grey Plexiglas walls over a white Plexiglas platform (View Point, Lyon, France). Stimulus mice used for the three-chamber test were 8-14-week-old grouped-housed male or female wild-type mice, socially naive to the experimental animals.
(§2) Direct social interaction test. On testing day, a pair of unfamiliar mice (not cage mates, age-, sex- and treatment-matched) was introduced in each arena for 10 min (15 lx). Each arena received a black plastic floor (transparent to infrared). […] The mean duration of nose and paw contacts was calculated from previous data (61-63).

Oprm1^−/− mice [2] = test: Three-chamber social preference test
Method: as §1
Three-chamber social preference test. The test apparatus consisted of a transparent acrylic box (exterior walls blinded with black plastic film); partitions divided the box into three equal chambers (40×20×22.5 cm). Two sliding doors (8×5 cm) allowed transitions between chambers. Cylindrical wire cages (18×9 cm, 0.5 cm diameter-rods spaced 1 cm apart) were used to contain the mouse interactor and object (soft-toy mouse). The test was performed in low-light conditions (15 lx) to minor anxiety. Stimulus wild-type mice were habituated to confinement in wire cages for 2 days before the test (20 min/day). On testing day, the experimental animal was introduced to the middle chamber and allowed to explore the whole apparatus for a 10-min habituation phase (wire cages empty) after the sliding doors were raised. The experimental mouse was then confined back in the middle-chamber while the experimenter introduced an unfamiliar wild type age and sex-matched animal into a wire cage in one of the side-chambers and a soft toy mouse (8×10 cm) in the second wire cage as a control for novelty. Then the experimental mouse was allowed to explore the apparatus for a 10-min interaction phase. The time spent in each chamber, the time spent in nose contact with each wire cage (empty: habituation; containing a mouse or a toy: interaction), as well as the number of these nose contacts were scored a posteriori on video recordings using an ethological keyboard (Labwatcher®, View Point, Lyon, France) by trained experimenters. […] The relative position of stimulus mice (versus toy) was counterbalanced between groups.

Fmr1^−/− mice = test: Direct social interaction test
Method: as §1, §2
To this purpose, we evaluated the effects of chronic NaBr administration at the dose of 250 mg/kg on autism-sensitive behaviors in these lines (FIG. 3A).

[3] = Oprm1−/− mice, chronic once daily, NaBr 10-500 mg/kg (effect from 125 mg/kg) or bumetanide 0.5 and 2 mg/kg, D9
[4] = Oprm1−/− mice, one week after cessation of chronic treatment (NaBr over 70 mg/kg, highest doses; bumetanide depending on the dose)
[5] = chronic NaBr (since lowest dose, 10 mg/kg) or bumetanide 0.5 and 2 mg/kg
[6] = chronic NaBr 250 mg/kg once daily
[7] = one week after interruption of NaBr 250 mg/kg

## [Br-].[Na+] [NaBr, sodium bromide]
Oprm1^−/− mice [1]; Oprm1+/+ mice, chronic once daily, NaBr 10-500 mg/kg or bumetanide 0.5 and 2 mg/kg
  social interaction in wild-type controls: had no detectable effect in Oprm1^+/+ mice
Oprm1^−/− mice [1]; Oprm1−/− mice, NaBr 70 mg/kg, VU0155041 1 mg/kg, alone or combined, once daily, chronic
  social interaction behavioral parameters: had no detectable effects on behavioral parameters
Oprm1^−/− mice [1]; Oprm1−/− mice, chronic once daily i.p., NaBr 10-500 mg/kg or bumetanide 0.5 and 2 mg/kg, D9
  social interaction deficit: from the dose of 125 mg/kg dose-dependently relieved this deficit
Oprm1^−/− mice [1]; Oprm1−/− mice, chronic once daily, NaBr 10-500 mg/kg (effect from 125 mg/kg) or bumetanide 0.5 and 2 mg/kg (effect at low dose), D9
  number of nose contacts: restored number
Oprm1^−/− mice [1]; [3]
  mean duration of nose contacts: restored
  mean duration of paw contacts: normalized
  number of paw contacts: normalized number
Oprm1^−/− mice [1]; Oprm1−/− mice, chronic once daily, NaBr 10-500 mg/kg or bumetanide 0.5 and 2 mg/kg, D9
  grooming after social contact: normalized the frequency of grooming after social contact in mutants, since the dose of 70 mg/kg
Oprm1^−/− mice [1]; [4]
  duration of nose contacts: preserved restoration of the duration of nose contacts
  grooming after social contact: maintained suppression of grooming after social contact
Oprm1^−/− mice [1]; Oprm1−/− mice, single acute injection of NaBr 250 mg/kg, data not shown
  social interaction parameters: had little effect on social interaction parameters
Oprm1^−/− mice [1]; Oprm1−/− mice, two weeks after cessation of chronic NaBr, data not shown
  relieving effects on social interaction: had mostly vanished after two weeks
Oprm1^−/− mice [1]; chronic once daily, NaBr 10-500 mg/kg (both mouse lines) or bumetanide (at low dose), D9
  number of following episodes: increased the number of following episodes in both mouse lines
Oprm1^−/− mice [2]; NaBr 70 mg/kg or VU0155041 1 mg/kg, once daily, chronic
  frequency of nose contacts with the mouse versus the toy: sufficient to restore more frequent nose contacts with the mouse versus the toy
Oprm1^−/− mice [2]; NaBr 70 mg/kg, VU0155041 1 mg/kg, alone or combined, once daily, chronic
  duration of nose contacts with the mouse versus the toy: fully restored longer nose contacts with the mouse
Oprm1^−/− mice [2]; chronic NaBr 10-500 mg/kg once daily
  social preference: completely restored social preference in mutant mice
Oprm1^−/− mice [2]; chronic NaBr 10-500 mg/kg or bumetanide 0.5 and 2 mg/kg
  social preference ratio: normalization of their preference ratio from 10 mg/kg NaBr and over
Oprm1^−/− mice [2]; [5]
  duration of nose contacts with the mouse versus the toy: longer
  number of nose contacts with the mouse versus the toy: more frequent
Fmr1^−/− mice; [6]
  duration of nose contacts: restored the duration of nose
  duration of paw contacts: restored
  grooming after social contact: suppressed grooming after social contact
  number of following episodes: normalized the number of following episodes
Fmr1^−/− mice; [7]
  duration of paw contacts: significant beneficial effects were still detected
  number of grooming episodes after a social contact: significant beneficial effects were still detected
